In ChEMBL document CHEMBL1275513, “R chi-01, a new family of oxazolidinones that overcome ribosome-based linezolid resistance” (Antimicrob Agents Chemother, 2008):
≈ marks a conversion by molar mass, not a printed value.

Assays:
[1] = Inhibition of 50S ribosomal subunit purified from Staphylococcus aureus ATCC 29213 assessed as inhibition of translation using in vitro transcribed mRNA encoding firefly luciferase
[2] = Selectivity ratio of IC50 for […] to IC50 for Staphylococcus aureus ATCC 29213 50S ribosomal subunit
[3] = tested on: Staphylococcus aureus; assay: Antimicrobial activity against Staphylococcus aureus ATCC 29213; assay type: functional
[4] = tested on: Staphylococcus aureus; assay: Antimicrobial activity against linezolid-,erythromycin-resistant Staphylococcus aureus A7820 with G2576U mutation at 23s rRNA; assay type: functional
[5] = tested on: Enterococcus faecalis; assay: Antimicrobial activity against Enterococcus faecalis ATCC 29212; assay type: functional
[6] = tested on: Enterococcus faecalis; assay: Antimicrobial activity against linezolid-resistant Enterococcus faecalis P5; assay type: functional
[7] = tested on: Enterococcus faecium; assay: Antimicrobial activity against linezolid-resistant Enterococcus faecium A6349 expressing VanA gene; assay type: functional
[8] = target: Bacterial 70S ribosome; assay: Displacement of [3H]chloramphenicol from 70S ribosomal complex in Staphylococcus aureus ATCC 29213 by competitive binding assay
[9] = Inhibition of 50S ribosomal subunit purified from linezolid-,erythromycin-resistant Staphylococcus aureus A7820 with G2576U mutation in 23s rRNA assessed as inhibition of translation using in vitro transcribed mRNA encoding firefly luciferase
[10] = target: Bacterial 70S ribosome; assay: Displacement of [3H]puromycin from 70S ribosomal complex in Staphylococcus aureus ATCC 29213 by competitive binding assay

Structure (SMILES)	IC50 [1] [µM]	ratio [2]	MIC [3] [µg/mL]	MIC [4] [µg/mL]	MIC [5] [µg/mL]	MIC [6] [µg/mL]	MIC [7] [µg/mL]	IC50 [8] [µM]	IC50 [9] [µM]	IC50 [10] [µM]
CC(=O)NC[C@H]1CN(c2ccc(-c3ccc(CN)cc3)c(F)c2)C(=O)O1	≤ 0.02	> 100	4 (≈ 11.2 µM)	8 (≈ 22.4 µM)	0.5 (≈ 1.4 µM)	8 (≈ 22.4 µM)	1 (≈ 2.8 µM)	58		
CC(=O)NC[C@H]1CN(c2ccc(-c3ccc(CNCC(N)=O)cc3)c(F)c2)C(=O)O1	≤ 0.02	> 50	4 (≈ 9.65 µM)	8 (≈ 19.3 µM)	0.5 (≈ 1.21 µM)	8 (≈ 19.3 µM)	1 (≈ 2.41 µM)			
CC(=O)NC[C@H]1CN(c2ccc(-c3ccc(CNC(=N)N)cc3)c(F)c2)C(=O)O1	≤ 0.02	> 100	2 (≈ 5.01 µM)	8 (≈ 20 µM)	2 (≈ 5.01 µM)	8 (≈ 20 µM)	2 (≈ 5.01 µM)	50	0.08	8.7
CC(=O)NC[C@H]1CN(c2ccc(-c3ccc(Cn4ncnn4)cc3)c(F)c2)C(=O)O1	0.06	23	0.5 (≈ 1.22 µM)	1 (≈ 2.44 µM)	0.25 (≈ 0.609 µM)	1 (≈ 2.44 µM)	0.5 (≈ 1.22 µM)			
CC(=O)NC[C@H]1CN(c2ccc(-c3ccc(CNCCCF)cc3)c(F)c2)C(=O)O1	≤ 0.02	> 100	1 (≈ 2.4 µM)	8 (≈ 19.2 µM)	0.5 (≈ 1.2 µM)	2 (≈ 4.79 µM)	1 (≈ 2.4 µM)	45	0.06	
CC(=O)NC[C@H]1CN(c2ccc(-c3ccc(Cn4ccnn4)cc3)c(F)c2)C(=O)O1	0.13	> 100	0.5 (≈ 1.22 µM)	1 (≈ 2.44 µM)	0.5 (≈ 1.22 µM)	1 (≈ 2.44 µM)	1 (≈ 2.44 µM)		0.21	
CC(=O)NC[C@H]1CN(c2ccc(-c3ccc(CNC(=O)/C=C/c4c(C)[nH]c(=O)[nH]c4=O)cc3)c(F)c2)C(=O)O1	0.09	17	0.25 (≈ 0.467 µM)	8 (≈ 14.9 µM)	1 (≈ 1.87 µM)	16 (≈ 29.9 µM)	1 (≈ 1.87 µM)		0.03	
O=C(N[C@H](CO)[C@H](O)c1ccc([N+](=O)[O-])cc1)C(Cl)Cl [CHLORAMPHENICOL]	7.8	25	8 (≈ 24.8 µM)	64 (≈ 198 µM)	8 (≈ 24.8 µM)	32 (≈ 99 µM)	24 (≈ 74.3 µM)	0.43	54	
CS(=O)(=O)c1ccc([C@@H](O)[C@@H](CF)NC(=O)C(Cl)Cl)cc1 [FLORFENICOL]	0.7	> 100	8 (≈ 22.3 µM)	64 (≈ 179 µM)	4 (≈ 11.2 µM)	16 (≈ 44.7 µM)	16 (≈ 44.7 µM)	20	16.4	
CC(=O)NC[C@H]1CN(c2ccc(N3CCOCC3)c(F)c2)C(=O)O1 [LINEZOLID]	0.9	> 100		64 (≈ 190 µM)		32 (≈ 94.9 µM)	16 (≈ 47.4 µM)	1380	8.4	920
COc1ccc(C[C@H](N)C(=O)N[C@H]2[C@@H](O)[C@H](n3cnc4c(N(C)C)ncnc43)O[C@@H]2CO)cc1 [PUROMYCIN]										0.9
CC(=O)NC[C@H]1CN(c2ccc(-c3ccc(CNCc4cnn[nH]4)cc3)c(F)c2)C(=O)O1 [RADEZOLID]	0.02	> 100	1 (≈ 2.28 µM)	8 (≈ 18.2 µM)	0.25 (≈ 0.57 µM)	1 (≈ 2.28 µM)	0.5 (≈ 1.14 µM)		0.03	
CSC[S@@+]([O-])CC(CO)NC(=O)/C=C/c1c(C)[nH]c(=O)[nH]c1=O (some centres undefined) [SPARSOMYCIN]	≤ 0.02	7								
